Legend:
[1] = tested on: DNA oligomer containing the G-quadruplex forming region of the c-Myc promoter; assay: FRET assay with c-Myc G-quadruplex oligomer (ED35); format: binding; conditions: concentration of ligand that decreases relative fluorescence of DNA FRET probe (1 μM) by 35%
Method: All synthesized ligands are examined with a DNA oligomer containing the G-quadruplex forming region of the c-Myc promoter (d[[…]]). The oligomer is tagged with a 5′-FAM fluorophore and a 3′-Black Hole Quencher molecule. 1 μM oligomer is linearized by heating at 95° C. for 5 minutes in a 50 mM Tris-Acetate buffer (pH 7.1) and slowly cooled back to room temperature, allowing formation of a G-quadruplex. Ligand is added to the oligomer probe at various concentrations spanning a 2-3 log range (high dose of 10 μM), allowed to incubate for 15 minutes in the dark and fluorescence is read on the BioTek Synergy HT spectrophotometer (Biotek, Winooski, VT). Drug autofluorescence is subtracted, data is normalized to oligomer only, and ED35s are calculated from data fit by a sigmoidal top-to-bottom nonlinear regression. ED35s<10 μM are further analyzed by circular dichroism (CD).
Experimental values for compounds tested according to one or more of the preceding examples are reported in the following table, including, ED35 is the concentration of ligand that decreases the relative fluorescence of a DNA FRET probe (1 μM) by 35% (identified as the threshold to minimize false negatives). ED35 values are reported in ranges: A: >10 μM; B: ≤10 μM.

[2] = tested on: c-Myc oligomer (parallel G-quadruplex); assay: Circular dichroism melting (ΔTm) with 1 equivalent of ligand; format: binding; conditions: increase in melting temperature with 1 equivalent of ligand (DNA:Ligand=1:1)
Method: Non-labeled oligomers were prepared as described for FRET (Example VII). Ligands interacting with the c-Myc FRET oligomer are further examined for DNA secondary structure stabilization by CD (Sun et al., 2005). Briefly, the CD absorption spectra at 262 nm (parallel G-quadruplex) with increasing temperatures (4-95° C.) is examined in the absence and presence of 1 equivalence of ligand. TM is calculated by GraphPad Prizm using a top-to-bottom nonlinear fit, and ΔTM are calculated for each ligands.

Bcl-2 G-quadruplex = assay: Competition dialysis, ligand bound to G-quadruplex; format: binding; conditions: 2 μM of compound
Method: (§1) Following the competition dialysis assay method of the Chaires group (Ragazzon et al., Methods 2007, 42, 173-182, which is hereby incorporated by reference in its entirety) using 2 μM of the referenced compound, the concentration of ligand bound to G-quadruplex structure for a variety of target genes were determined.

HIF-1α G-quadruplex = assay: Competition dialysis, ligand bound to G-quadruplex; format: binding; conditions: 2 μM of compound
Method: as §1

MYC G-quadruplex = assay: Competition dialysis, ligand bound to G-quadruplex; format: binding; conditions: 2 μM of compound
Method: as §1

PDGF-Rβ G-quadruplex = assay: Competition dialysis, ligand bound to G-quadruplex; format: binding; conditions: 2 μM of compound
Method: as §1

PDGFA G-quadruplex = assay: Competition dialysis, ligand bound to G-quadruplex; format: binding; conditions: 2 μM of compound
Method: as §1

Telomeric G-quadruplex = assay: Competition dialysis, ligand bound to G-quadruplex; format: binding; conditions: 2 μM of compound
Method: as §1

VEGF G-quadruplex = assay: Competition dialysis, ligand bound to G-quadruplex; format: binding; conditions: 2 μM of compound
Method: as §1

hTERT G-quadruplex = assay: Competition dialysis, ligand bound to G-quadruplex; format: binding; conditions: 2 μM of compound
Method: as §1

22Rv1 cells = assay: Cell viability by MTT, 48 h; format: cell-based; conditions: Homo sapiens, 22Rv1, 48 h
Description: (§2) Table V provides the IC50 values for GSA0932.

C4-2 cells = assay: Cell viability by MTT, 48 h; format: cell-based; conditions: C4-2, 48 h
Description: as §2

LNCaP cells = assay: Cell viability by MTT, 48 h; format: cell-based; conditions: Homo sapiens
Description: as §2

PC3 cells = assay: Cell viability by MTT, 48 h; format: cell-based; conditions: Homo sapiens, PC-3, PC3, 48 h
Description: as §2

[3] = tested on: RWPE non-malignant prostate cells; assay: Cell viability by MTT, 48 h; format: cell-based
Description: as §2

VCaP cells = assay: Cell viability by MTT, 48 h; format: cell-based; conditions: Homo sapiens
Description: as §2

AR = AR protein expression by immunoblotting in prostate cancer cells; format: cell-based; conditions: for concentration of maximal inhibitory activity on AR expression: 24 h of treatment
Method: (§3) This example provides specific compounds of the present invention suppress AR protein expression in androgen-dependent (LNCaP) and CRPC tumor cells ([…]) after a 24 h treatment at 10 μM (FIG. 1A) (Cell lysates from LNCaP and C4-2 cells treated with GSA compounds at a concentration of 10 μM for 24 hours were analyzed for expression of AR, NCL, and GAPDH by immunoblotting). GSA0932 suppress AR expression in 22RV1 and VCaP tumor cells, after 24 h of treatment reaching its maximal inhibitory activity at a concentration of 3 and 5 μM respectively (FIG. 1B) (Cell lysates from indicated prostate cancer cell lines treated with increasing concentrations GSA0932 for 24 hours were analyzed for AR, NCL, and GAPDH by immunoblotting). […] Values are means±s.e.m; p<0.05 (*); n=3).

ARv7 splice variant = ARv7 splice variant expression by immunoblotting in 22RV1; format: cell-based; conditions: 22RV1 cells, 24 h
Method: as §3

KLK3, also known as PSA = assay: mRNA expression of AR target gene by RT-qPCR; format: cell-based; conditions: 12 hours; 10 μM (LNCaP, C4-2), 5 μM (VCaP), 3 μM (22RV1)
AR mRNA = AR mRNA expression by RT-qPCR; format: cell-based; conditions: 10 μM; for AR mRNA: LNCaP and C4-2 cells, 12 and 24 hours
Method: as §3
(§4) To measure the dependency of GSA0932-mediated AR suppression on the AR G4-element, we generated a stable LNCaP cell lines expressing a dual reporter in which Gaussia luciferase is driven by either a wild type or a mutant AR promoter lacking the G4 element, and secreted alkaline phosphatase (SEAP) is driven by a constitutive promoter. […] However, GSA0932 had no effect on the G4-deleted AR reporter (FIG. 1E). […] Knocking down NCL expression alleviated the GSA0932 inhibitory activity against AR mRNA expression compared with control cells (FIG. 1G) (LNCaP cells were transfected with scrambled (Scr) or NCL siRNAs and […] post-transfection, cells were treated with DMSO, 10 μM GSA0932, or […] GSA1502 for 12 hours. Extracted RNA was analyzed for AR expression by RT-qPCR).

[4] = tested on: wild type AR promoter (AR G4) reporter; assay: Dual reporter, Gaussia luciferase driven by wild type AR promoter, in LNCaP; format: cell-based; conditions: LNCaP stable cells, 10 μM, 12 hours
Description: as §4

G4-deleted AR reporter = assay: Dual reporter, Gaussia luciferase driven by mutant AR promoter lacking the G4 element, in LNCaP; format: cell-based; conditions: LNCaP stable cells, 10 μM, 12 hours
Description: as §4

[5] = tested on: NCL bound to the G4-element of the AR promoter; assay: ChIP of NCL on AR G4; format: cell-based; conditions: LNCaP and C4-2 cells, 10 μM
[6] = tested on: AR-positive tumor cells versus non-AR expressing cells; assay: Cytotoxic activity across prostate cell lines by MTT; format: cell-based; conditions: 48 h
Description: as §2

In the case of `c1ccc2c3c4c(nc2c1)c1ccccc1n4CCCN3CCN1CCOCC1` [Compound 1], the ED35 [1] is reported as “A (A: >10 μM)” and the ΔTm [2] is reported as “A (A: 0-10° C.)”.
`OC1CCN(CCN2CCCn3c4ccccc4c4nc5ccccc5c2c43)CC1` [Compound 2] was tested, and the ED35 [1] was “A (A: >10 μM)” and the ΔTm [2] was “A (A: 0-10° C.)”.
In the case of `c1ccc2c3c4c(nc2c1)c1ccccc1n4CCCN3CCCN1CCOCC1` [Compound 3], the ED35 [1] is reported as “B (B: ≤10 μM)”, the ΔTm [2] is reported as “A (A: 0-10° C.)” and the “concentration of ligand bound to G-quadruplex structure” value (shortened to “concentration of ligand bound”) (Bcl-2 G-quadruplex) is reported as 3.0 µM. For the same molecule, the “concentration of ligand bound” value (HIF-1α G-quadruplex) was 4.0 µM, the “concentration of ligand bound” value (MYC G-quadruplex) was 1.0 µM and the “concentration of ligand bound” value (PDGF-Rβ G-quadruplex) was 0.0 µM. The “concentration of ligand bound” value (PDGFA G-quadruplex) was 0.5 µM, the “concentration of ligand bound” value (Telomeric G-quadruplex) was 1.0 µM and the “concentration of ligand bound” value (VEGF G-quadruplex) was 3.0 µM. The “concentration of ligand bound” value (hTERT G-quadruplex) was 10.5 µM.
With `OCCCN1CCCn2c3ccccc3c3nc4ccccc4c1c32` [Compound 4] the ED35 [1] was “B (B: ≤10 μM)” and the ΔTm [2] was “A (A: 0-10° C.)”.
In the case of `CN1CCN(CCCN2CCCn3c4ccccc4c4nc5ccccc5c2c43)CC1` [Compound 5], the ED35 [1] is reported as “A (A: >10 μM)” and the ΔTm [2] is reported as “A (A: 0-10° C.)”.
For `Cl.c1ccc2c3c4c(nc2c1)c1ccccc1n4CCCN3CCCN1CCCCCC1` [Compound 6], the ED35 [1] was “A (A: >10 μM)” and the ΔTm [2] was “A (A: 0-10° C.)”.
For `OC1CCN(CCCN2CCCn3c4ccccc4c4nc5ccccc5c2c43)CC1` [Compound 7], the ED35 [1] was “B (B: ≤10 μM)” and the ΔTm [2] was “A (A: 0-10° C.)”.
For `CN1CCN(C(=O)NCCN2CCCn3c4ccccc4c4nc5ccccc5c2c43)CC1` [Compound 8], the ED35 [1] was “B (B: ≤10 μM)” and the ΔTm [2] was “B (B: >10° C.)”.
`O=C(NCCN1CCCn2c3ccccc3c3nc4ccccc4c1c32)C1C[C@@H](O)CN1` (stereo partly drawn) [Compound 9] was tested, and the ED35 [1] was “B (B: ≤10 μM)” and the ΔTm [2] was “B (B: >10° C.)”.
`CN1CCN(C(=O)NCCCN2CCCn3c4ccccc4c4nc5ccccc5c2c43)CC1` [Compound 10] was tested, and the ED35 [1] was “B (B: ≤10 μM)”, the ΔTm [2] was “A (A: 0-10° C.)” and the “concentration of ligand bound” value (Bcl-2 G-quadruplex) was 8.3 µM. The “concentration of ligand bound” value (HIF-1α G-quadruplex) was 3.3 µM, the “concentration of ligand bound” value (MYC G-quadruplex) was 6.8 µM and the “concentration of ligand bound” value (PDGF-Rβ G-quadruplex) was 8.3 µM. The “concentration of ligand bound” value (PDGFA G-quadruplex) was 1.8 µM, the “concentration of ligand bound” value (Telomeric G-quadruplex) was 2.9 µM and the “concentration of ligand bound” value (VEGF G-quadruplex) was 2.5 µM. The “concentration of ligand bound” value (hTERT G-quadruplex) was 9.5 µM.
With `O=C(NCCCN1CCCn2c3ccccc3c3nc4ccccc4c1c32)C1C[C@@H](O)CN1` (stereo partly drawn) [Compound 11] the ED35 [1] was “B (B: ≤10 μM)” and the ΔTm [2] was “B (B: >10° C.)”.
In the case of `c1ccc2c3c4c(nc2c1)c1ccccc1n4CCCN3CCCNc1ncnc2nc[nH]c12` [Compound 12], the ED35 [1] is reported as “B (B: ≤10 μM)” and the ΔTm [2] is reported as “A (A: 0-10° C.)”.
For `CN1CCN(C(=O)N2C[C@H](O)CC2C(=O)NCCCN2CCCn3c4ccccc4c4nc5ccccc5c2c43)CC1` (stereo partly drawn) [Compound 13], the ED35 [1] was “B (B: ≤10 μM)” and the ΔTm [2] was “A (A: 0-10° C.)”.
`NCCCN1CCCn2c3ccccc3c3nc4ccccc4c1c32` [Compound 14] was tested, and the ED35 [1] was “B (B: ≤10 μM)” and the ΔTm [2] was “A (A: 0-10° C.)”.
With `c1ccc2c3c4c(nc2c1)c1ccccc1n4CCCN3CCCN1CCCCC1` [Compound 15] the ED35 [1] was “B (B: ≤10 μM)”.
Molecule `OC1CCN(CCN2CCCn3c4ccccc4c4nc5ccccc5c2c43)CC1` [GSA0932] has an IC50 (22Rv1 cells) of 900 ± 110 nM, an IC50 (C4-2 cells) of 2000 ± 40 nM and an IC50 (LNCaP cells) of 1400 ± 260 nM. For the same molecule, the IC50 (PC3 cells) was 4300 ± 160 nM, the IC50 [3] was 5400 ± 50 nM and the IC50 (VCaP cells) was 2800 ± 30 nM. The “concentration of maximal inhibitory activity on AR expression” value (AR; 22RV1 cells) was 3 µM, the “concentration of maximal inhibitory activity on AR expression” value (AR; VCaP cells) was 5 µM and the “expression of ARv7 splice variant” value (ARv7 splice variant) was “inhibits the expression”. For the same molecule, the “mRNA expression of AR target gene KLK3 (PSA)” value (KLK3, also known as PSA) was “suppressed mRNA expression”, the “AR mRNA” value (AR mRNA) was “significantly decreased” and the “inhibitory activity against AR mRNA expression after NCL knockdown” value (AR mRNA; LNCaP cells, NCL siRNA versus scrambled, 12 hours) was “alleviated”. The “luciferase activity of wild type reporter” value [4] was “significantly decreases luciferase activity”, the “effect on G4-deleted AR reporter” value (G4-deleted AR reporter) was “had no effect” and the “amount of NCL bound to the G4-element of the AR promoter” value [5] was “increases the amount of NCL bound”. For the same molecule, the “cytotoxic activity, AR-positive versus non-AR expressing cells” value [6] was “stronger cytotoxic activity against AR-positive tumor cells than non-AR expressing cells”.
In the case of `CN(C)CCN1CCCn2c3ccccc3c3nc4ccccc4c1c32` [GSA1502], the AR protein expression (AR; LNCaP and C4-2 cells, 24 h, 10 μM) is reported as “does not affect” and the “AR mRNA” value (AR mRNA) is reported as “does not affect”.
